PubChem BioAssay AID652241 (Broad Institute, 2013)
Results filed as inconclusive are left out. The source made the active and inactive calls.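 The calls were made as follows: active = fitted curve reaches activity 50 in the expected rising direction at or below the top valid tested dose; inconclusive = no clear call, values can overlap the other calls; inactive = activity in the wrong direction, and the rest.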

Biological target: Virion infectivity factor (Human immunodeficiency virus type 1 group M subtype B (isolate BH10)) + Virion infectivity factor (Human immunodeficiency virus type 1 group M subtype B (isolate BRU/LAI)) + Virion infectivity factor (Human immunodeficiency virus type 1 group M subtype B (isolate PCV12)) + Virion infectivity factor (Human immunodeficiency virus type 1 group M subtype B (isolate HXB2)) (UniProt P69720+P69721+P69722+P69723)
Sequence (P69720 whole entry, looked up): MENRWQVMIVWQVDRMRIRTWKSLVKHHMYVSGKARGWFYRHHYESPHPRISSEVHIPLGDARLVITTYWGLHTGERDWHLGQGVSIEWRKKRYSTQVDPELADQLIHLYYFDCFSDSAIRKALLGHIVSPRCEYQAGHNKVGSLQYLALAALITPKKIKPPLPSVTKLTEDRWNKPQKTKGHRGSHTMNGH
Sequence (P69721 whole entry, looked up): as the sequence (P69720 whole entry, looked up) above
Sequence (P69722 whole entry, looked up): as the sequence (P69720 whole entry, looked up) above
Sequence (P69723 whole entry, looked up): as the sequence (P69720 whole entry, looked up) above
Assay: Vif multimerization inhibitor potency, dose response, imaging, HEK293T, cherry-picks (AID 652241);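 also: imaged cell signal that rises when Vif self-association is disrupted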
Conditions: 24 h

Row | Structure (SMILES) | activity, higher = inhibition (at 19.5 µM (top of the series)) | other results
1 | COC(=O)c1cc(Cl)c(NC(=O)c2cc3ccccc3o2)cc1OC | inactive | –
2 | CCC(=O)Nc1ccc(-c2cc3ccccc3oc2=O)cc1 | inactive | –
3 | O=C(/C=C/c1ccccc1)Nc1ncn[nH]1 | – | AC50: 19.5 µM
4 | CCCCn1c(-c2ccncc2)nc2c1c(=O)[nH]c(=O)n2CC(C)C | inactive | –
5 | CCCn1c(=N)c(C(=O)NCc2ccc3c(c2)OCO3)cc2c(=O)n3cccc(C)c3nc21 | inactive | –
6 | CN1CCN(C(=S)c2ccc(OCC(=O)Nc3cccc(C(F)(F)F)c3)cc2)CC1 | inactive | –
7 | COc1cccc(NC(=O)c2cc(C(=O)Nc3cccc(OC)c3)n(C)n2)c1 | inactive | –
8 | CCCCOc1cccc2c(=O)n(CC(=O)Nc3ccc4c(c3)OCCO4)ccc12 | inactive | –
9 | CCN1C(=O)c2cccc3c(S(=O)(=O)Nc4ccccc4O)ccc1c23 | inactive | –
10 | CCN1C(=O)NC(c2ccccc2)C1=O (stereo unspecified) | inactive | –
11 | Cc1nc(SCC(=O)N2CCCC2=O)nc(C)c1C | inactive | –
12 | Cc1ncoc1C(=O)N1CCCC(C(=O)c2ccc(Oc3ccccc3)cc2)C1 (stereo unspecified) | inactive | –
13 | COc1ccc(-c2cc(C(F)(F)F)n3nc(C(=O)NCc4ccco4)c(Cl)c3n2)cc1 | – | AC50: 8.52 µM
14 | O=c1[nH]c(=O)n(Cc2ccco2)c2c1C(C(F)(F)F)(C(F)(F)F)N=C(c1ccco1)N2 | inactive | –
15 | COc1cccc(-c2cc(=O)c3cc(NC(=O)c4ccccc4)ccc3[nH]2)c1 | – | AC50: 5.04 µM
16 | COc1ccc(C(=O)NC2CC3CCCC(C2)N3Cc2ccccc2)cc1OC (stereo unspecified) | inactive | –
17 | CC(C)OCCCNc1ncnc2c1[nH]c1ccc(F)cc12 | inactive | –
18 | Cc1ccc(CCC(=O)Nc2ncc(Cc3cc(Cl)ccc3Cl)s2)o1 | – | AC50: 2.02 µM
19 | CCN1C(=O)c2cccc3c(S(=O)(=O)Nc4nc(C)cs4)ccc1c23 | – | AC50: 15.1 µM
20 | COc1ccc(CCNC(=O)[C@@H](NC(N)=O)C(C)C)cc1 | inactive | –
21 | O=C(Cn1ncc2c3ccccc3n(Cc3cccc(Cl)c3)c2c1=O)N1CCC2(CC1)OCCO2 | inactive | –
22 | Cc1nnc2ccc(-c3cccc(NS(=O)(=O)c4cc(F)ccc4F)c3)nn12 | – | AC50: 10.7 µM
23 | Nc1nc(-c2ccc3ccccc3c2)cs1 | inactive | –
24 | CC(C)C(c1nnnn1CC1CCCO1)N1CCN(C2CCCC2)CC1 (stereo unspecified) | inactive | –

Row | Structure (SMILES) | activity, higher = inhibition (at 19.5 µM (top of the series)) | other results
25 | CCOC(=O)c1nc(Nc2ccc(C(=O)OC)cc2)c2ccccc2n1 | inactive | –
26 | CCCN1C(=O)/C(=C\C=C2\N(CC)c3ccccc3C2(C)C)SC1=S | – | activity, higher = inhibition (at 6.8 µM (top of the series)): inactive
27 | Cc1nn2c(COc3ccc(NC(=O)c4ccccc4Cl)cc3)nnc2c2ccccc12 | inactive | –
28 | COCCNC(=O)c1nn2c(C(F)(F)F)cc(-c3ccccc3)nc2c1Cl | – | AC50: > 19.5 µM (inactive)
29 | O=C(C1COc2ccccc2O1)N1CCN(Cc2ccc3c(c2)OCO3)CC1 (stereo unspecified) | inactive | –
30 | Cc1ccc(NC(=O)/C=C/C(=O)O)c(NC(=O)c2ccccc2)c1 | inactive | –
31 | COc1cc(-c2cc(=O)c3c(O)c(OC)c(OC)c(O)c3o2)ccc1O | – | AC50: > 19.5 µM (inactive)
32 | COc1ccc(Br)cc1C(=O)Nc1ccc(N2CCCC2)cc1 | inactive | –
33 | NCCCCCC(=O)Nc1ccncc1 | inactive | –
34 | CC(=O)Nc1ccc(C2(c3ccc(NC(C)=O)cc3)NC(=O)c3ccccc32)cc1 | inactive | –
35 | Cc1cc(S(=O)(=O)N2CCOCC2)ccc1OCC(=O)NCCN1CCOCC1 | inactive | –
36 | O=C(NCc1ccccn1)c1ccc(Cn2c(=S)[nH]c3ccc(Br)cc3c2=O)cc1 | inactive | –
37 | COC(=O)c1ccc(NCc2cc(O)ccc2O)cc1O | – | AC50: 10.9 µM
38 | O=C1Nc2ccccc2S/C1=C/Nc1cccc(Cl)c1 | – | activity, higher = inhibition (at 6.8 µM (top of the series)): inactive
39 | COc1ccc(OC)c(/C(O)=C/C(=O)C(=O)Nc2cc(C)ccc2OC)c1 | inactive | –
40 | CCc1ccc(S(=O)(=O)Nc2ccc(-c3ccc4nnc(C)n4n3)cc2)s1 | – | AC50: 11.4 µM
41 | Cc1c(NC(=O)CC(O)(C(F)(F)F)C(F)(F)F)c(=O)n(-c2ccccc2)n1C | inactive | –
42 | O=C(c1ccc2c(c1)OCO2)N(CC1CCCO1)C1(C(=O)NC2CCCC2)CCCCC1 (stereo unspecified) | inactive | –
43 | Cc1cc(NS(=O)(=O)c2ccc(NC(=O)c3ccc(Cl)cc3Cl)cc2)no1 | inactive | –
44 | COc1ccc(-c2nc(CS(=O)(=O)CC(=O)NCCc3ccccc3)c(C)o2)cc1 | – | activity, higher = inhibition (at 6.8 µM (top of the series)): inactive
45 | CN(C)c1ccc(/C=C/C(=O)c2ccc3c(c2)OCO3)cc1 | inactive | –
46 | C=CCn1c(O)c(C2=c3ccccc3=NC2=O)s/c1=N/c1nccs1 | – | AC50: > 19.5 µM (inactive)
47 | COc1ccc2c(CC(=O)Nc3ccccc3OC)coc2c1 | inactive | –
48 | Oc1[nH]c(=S)sc1/C=C1\C(c2ccccc2)=Nc2ccccc21 | – | activity, higher = inhibition (at 6.8 µM (top of the series)): inactive

Row | Structure (SMILES) | activity, higher = inhibition (at 19.5 µM (top of the series)) | other results
49 | CCCOCCOC(=O)c1[nH]c2c(c1C)C(=O)CC(c1cc(OC)ccc1OC)C2 (stereo unspecified) | inactive | –
50 | COc1cc2[nH]c(=O)n(CCCC(=O)NC3CCCCC3)c(=O)c2cc1OC | inactive | –
51 | Cc1ccc(NC(=O)/C=C/c2ccco2)nc1 | – | AC50: 8.31 µM
52 | O=C(COC(=O)c1ccccc1Br)NC1CCCC1 | inactive | –
53 | O=C(Nc1ccc2c(c1)nc1n2CCOC1)c1ccccc1 | inactive | –
54 | Cn1nnnc1Sc1ncnc2scc(-c3ccc(Cl)cc3)c12 | – | AC50: 3.75 µM
55 | O=C(O)CCCCn1c(SCc2ccccc2Cl)nc2ccsc2c1=O | inactive | –
56 | CC1(C)CC(=O)C2=C(C1)Nc1ccccc1N(C(=O)C1CC1)C2c1ccco1 (stereo unspecified) | inactive | –
57 | COC(=O)c1ccc2c(=O)n(Cc3ccco3)c(SCC(=O)Nc3cc(C)on3)nc2c1 | inactive | –
58 | CCOc1ccc(S(=O)(=O)NCc2ccccn2)cc1NC(=O)c1ccccc1 | inactive | –
59 | Nc1c(C(=O)Nc2nc3ccccc3s2)sc2nc(-c3cccs3)ccc12 | – | AC50: 7.57 µM
60 | CCOc1c(C(N)=O)c(-c2ccccc2)c2c(=O)[nH]c3ccccc3n12 | – | AC50: > 19.5 µM (inactive)
61 | Cc1cc(NC(=O)CSc2nc3ccccc3c(=O)n2-c2ccccc2)no1 | inactive | –
62 | Oc1ccc(-c2nc(-c3ccc(O)c(O)c3)cs2)cc1 | – | AC50: 9.83 µM
63 | Cc1nnc2ccc(-c3ccc(NS(=O)(=O)c4ccc(F)cc4F)cc3)nn12 | – | AC50: > 19.5 µM (inactive)
64 | CCn1c(CC(=O)Nc2ccccc2)nnc1SCC(=O)Nc1nnc(C)s1 | inactive | –
65 | CCOC(=O)c1c(NC(=O)CCC(=O)N2CCOCC2)sc2c1CC(C)(C)OC2 | inactive | –
66 | S=C(Nc1ccccc1)N1CCn2c(nc3ccccc32)C1 | inactive | –
67 | O=C1/C(=C/c2ccc(N3CCCC3)cc2)NC(=S)N1C1CC1 | inactive | –
68 | O=C(Cn1c(=O)oc2cc(S(=O)(=O)N3CCCCC3)ccc21)N1CCc2ccccc21 | inactive | –
69 | COc1ccc(-c2cc(-c3nc4ccccn4c3NCc3ccccc3)ccc2OC)cc1 | – | AC50: 3.66 µM
70 | CCOc1nc(N2CCCCC2)nc(-n2cc(-c3ccccc3)nn2)n1 | inactive | –
71 | CCCOc1ccc(C(O)(CCC)CCN2CCCCC2)cc1 (stereo unspecified) | inactive | –
